Measured values as given in PubChem BioAssay AID200 (DTP/NCI, 2004).
“And” between values parts separate entries of the source, which are not always exact repeats. Equal values may be shown once. Inconclusive results and toxic doses are left out. The calls were made as follows: active = survival T/C of 150% or more; inactive = T/C below 125% in these data. Where a SMILES comes first, the peptide text is derived from it. The star is where a group is joined. Cbz = O=C(OCc1ccccc1)*

System: B6C3F1 mice, B16 melanoma ip, median survival T/C
Experiment: NCI In Vivo Anticancer Drug Screen. Data for tumor model B16 Melanoma (intraperitoneal) in B6C3F1 mice
Details: endpoint: median survival time, higher = longer survival
Procedure: The antitumor activity of compounds was measured in mice bearing transplantable tumors. Survival or tumor size were measured and the results are expressed as the measurement made in the treated group (T) divided by the measurement made in the vehicle treated control group (C). The tumor model used in this assay is B16 Melanoma (intraperitoneal) in B6C3F1 mice

[1] = dose: 50.0 mg/kg/injection, schedule: Q01DX009 (ip), vehicle: saline
[2] = dose: 100.0 mg/kg/injection, schedule: Q01DX009 (ip), vehicle: saline
[3] = dose: 6.25 mg/kg/injection, schedule: Q01DX009 (ip), vehicle: saline with Tween-80
[4] = dose: 12.5 mg/kg/injection, schedule: Q01DX009 (ip), vehicle: saline with Tween-80
[5] = dose: 25.0 mg/kg/injection, schedule: Q01DX009 (ip), vehicle: saline with Tween-80
[6] = dose: 50.0 mg/kg/injection, schedule: Q01DX009 (ip), vehicle: saline with Tween-80
[7] = dose: 200.0 mg/kg/injection, schedule: Q01DX009 (ip), vehicle: saline
[8] = dose: 25.0 mg/kg/injection, schedule: Q01DX009 (ip), vehicle: Klucel (hydroxypropylcellulose) (HPC)
[9] = dose: 50.0 mg/kg/injection, schedule: Q01DX009 (ip), vehicle: Klucel (hydroxypropylcellulose) (HPC)
[10] = dose: 100.0 mg/kg/injection, schedule: Q01DX009 (ip), vehicle: Klucel (hydroxypropylcellulose) (HPC)
[11] = dose: 400.0 mg/kg/injection, schedule: Q01DX009 (ip), vehicle: Klucel (hydroxypropylcellulose) (HPC)
[12] = dose: 3.12 mg/kg/injection, schedule: Q01DX009 (ip), vehicle: saline
[13] = dose: 6.25 mg/kg/injection, schedule: Q01DX009 (ip), vehicle: saline
[14] = dose: 12.5 mg/kg/injection, schedule: Q01DX009 (ip), vehicle: saline
[15] = dose: 25.0 mg/kg/injection, schedule: Q01DX009 (ip), vehicle: saline

Measured: T/C

CC1=NN(c2cccc(S(=O)(=O)O)c2)C(=O)C1N=Nc1cc(Cl)cc(S(=O)(=O)O)c1O.CC1=NN(c2cccc(S(=O)(=O)O)c2)C(=O)C1N=Nc1cc(Cl)cc(S(=O)(=O)O)c1O.[Cr] (stereo not given)
inactive: [1] 91 % of control | [2] 91 % of control

BrCC[Se]c1ccccc1
inactive: dose: 3.12 mg/kg/injection, schedule: Q01DX009 (ip), vehicle: saline with Tween-80 113 % of control and 104 % of control | [3] 100 % of control | [4] 119 % of control and 103 % of control | [5] 113 % of control and 100 % of control | [6] 95 % of control and 103 % of control

COC(=O)c1[nH]c(=O)[nH]c(=O)c1F
inactive: [1] 98 % of control | [2] 94 % of control | [7] 100 % of control

CCN(CC)C(=S)S
inactive: [1] 92 % of control | dose: 50.0 mg/kg/injection, schedule: Q01DX009 (ip), vehicle: sodium bicarbonate 105 % of control | [2] 96 % of control | dose: 100.0 mg/kg/injection, schedule: Q01DX009 (ip), vehicle: sodium bicarbonate 92 % of control | [7] 102 % of control | dose: 200.0 mg/kg/injection, schedule: Q01DX009 (ip), vehicle: sodium bicarbonate 105 % of control | dose: 400.0 mg/kg/injection, schedule: Q01DX009 (ip), vehicle: saline 94 % of control | dose: 400.0 mg/kg/injection, schedule: Q01DX009 (ip), vehicle: sodium bicarbonate 105 % of control | dose: 800.0 mg/kg/injection, schedule: Q01DX009 (ip), vehicle: saline 95 % of control | dose: 800.0 mg/kg/injection, schedule: Q01DX009 (ip), vehicle: sodium bicarbonate 95 % of control

O=[n+]1c2ccccc2n([O-])c2cc(Cl)ccc21
inactive: [4] 111 % of control | [5] 109 % of control | [6] 116 % of control | dose: 100.0 mg/kg/injection, schedule: Q01DX009 (ip), vehicle: saline with Tween-80 124 % of control

CC(NC(=O)OCc1ccccc1)C(=O)NC(CC(N)=O)C(=O)O (stereo not drawn) (Cbz-Ala-Asn-OH; configuration not given here)
inactive: dose: 12.0 mg/kg/injection, schedule: Q01DX009 (ip), vehicle: Klucel (hydroxypropylcellulose) (HPC) 101 % of control | [8] 101 % of control | [9] 98 % of control | [10] 107 % of control | [11] 104 % of control

N#CC(=C1SCS1)[N+](=O)[O-]
inactive: dose: 0.37 mg/kg/injection, schedule: Q01DX009 (ip), vehicle: saline with Tween-80 108 % of control | dose: 0.75 mg/kg/injection, schedule: Q01DX009 (ip), vehicle: saline with Tween-80 100 % of control | dose: 1.5 mg/kg/injection, schedule: Q01DX009 (ip), vehicle: saline with Tween-80 105 % of control | dose: 3.0 mg/kg/injection, schedule: Q01DX009 (ip), vehicle: saline with Tween-80 119 % of control | dose: 6.0 mg/kg/injection, schedule: Q01DX009 (ip), vehicle: saline with Tween-80 118 % of control | dose: 12.0 mg/kg/injection, schedule: Q01DX009 (ip), vehicle: saline with Tween-80 107 % of control | dose: 375.0 micrograms/kg/injection, schedule: Q01DX009 (ip), vehicle: saline with Tween-80 107 % of control | dose: 750.0 micrograms/kg/injection, schedule: Q01DX009 (ip), vehicle: saline with Tween-80 104 % of control | dose: 1500.0 micrograms/kg/injection, schedule: Q01DX009 (ip), vehicle: saline with Tween-80 113 % of control | dose: 3000.0 micrograms/kg/injection, schedule: Q01DX009 (ip), vehicle: saline with Tween-80 108 % of control | dose: 6000.0 micrograms/kg/injection, schedule: Q01DX009 (ip), vehicle: saline with Tween-80 101 % of control

CC(=O)Nc1ccc(N=Nc2c(C)nn(C(=N)N)c2C)cc1
inactive: [12] 103 % of control | [13] 99 % of control | [14] 105 % of control | [15] 95 % of control | [1] 101 % of control

[Cl][Pt+2][Cl].[NH-]c1ccc([N+](=O)[O-])cc1[NH-]
inactive: dose: 10.0 mg/kg/injection, schedule: Q01DX009 (ip), vehicle: saline with Tween-80 107 % of control | dose: 20.0 mg/kg/injection, schedule: Q01DX009 (ip), vehicle: saline with Tween-80 105 % of control | dose: 40.0 mg/kg/injection, schedule: Q01DX009 (ip), vehicle: saline with Tween-80 118 % of control | dose: 80.0 mg/kg/injection, schedule: Q01DX009 (ip), vehicle: saline with Tween-80 116 % of control

CCn1c(-c2ccc(OC(C)=O)cc2)c(C)c2cc(OC(C)=O)ccc21
inactive: [8] 104 % of control | [9] 97 % of control | [10] 97 % of control | dose: 200.0 mg/kg/injection, schedule: Q01DX009 (ip), vehicle: Klucel (hydroxypropylcellulose) (HPC) 87 % of control | [11] 107 % of control

CC(=O)CC(c1ccccc1)c1c(O)c2ccccc2oc1=O (stereo not given)
inactive: dose: 0.05 mg/kg/injection, schedule: Q01DX009 (ip), vehicle: Klucel (hydroxypropylcellulose) (HPC) 95 % of control | dose: 0.05 mg/kg/injection, schedule: Q01DX009 (ip), vehicle: saline with Tween-80 121 % of control and 106 % of control | dose: 0.1 mg/kg/injection, schedule: Q01DX009 (ip), vehicle: Klucel (hydroxypropylcellulose) (HPC) 104 % of control | dose: 0.1 mg/kg/injection, schedule: Q01DX009 (ip), vehicle: saline with Tween-80 91 % of control | dose: 0.2 mg/kg/injection, schedule: Q01DX009 (ip), vehicle: Klucel (hydroxypropylcellulose) (HPC) 93 % of control | dose: 0.2 mg/kg/injection, schedule: Q01DX009 (ip), vehicle: saline with Tween-80 124 % of control and 87 % of control | dose: 0.4 mg/kg/injection, schedule: Q01DX009 (ip), vehicle: Klucel (hydroxypropylcellulose) (HPC) 108 % of control | dose: 0.4 mg/kg/injection, schedule: Q01DX009 (ip), vehicle: saline with Tween-80 111 % of control | dose: 0.8 mg/kg/injection, schedule: Q01DX009 (ip), vehicle: Klucel (hydroxypropylcellulose) (HPC) 98 % of control | dose: 0.8 mg/kg/injection, schedule: Q01DX009 (ip), vehicle: saline with Tween-80 103 % of control

C=C1C(=O)[C@]23C[C@H]1CC[C@H]2[C@@]12CO[C@@H](O)[C@@H]1C(C)(C)[C@@H](O)C[C@@H]2OC3=O
inactive: [5] 102 % of control | [6] 102 % of control

c1cnc2ncncc2n1
inactive: [14] 110 % of control | [15] 107 % of control | [1] 97 % of control | [2] 91 % of control | [7] 99 % of control

CC(C)CCC(=O)c1ccoc1
inactive: dose: 0.12 mg/kg/injection, schedule: Q03HX027 (ip), vehicle: saline with Tween-80 100 % of control | dose: 0.25 mg/kg/injection, schedule: Q01DX009 (ip), vehicle: saline with Tween-80 100 % of control | dose: 0.25 mg/kg/injection, schedule: Q03HX027 (ip), vehicle: saline with Tween-80 98 % of control | dose: 0.5 mg/kg/injection, schedule: Q01DX009 (ip), vehicle: saline with Tween-80 100 % of control | dose: 0.5 mg/kg/injection, schedule: Q03HX027 (ip), vehicle: saline with Tween-80 107 % of control | dose: 1.0 mg/kg/injection, schedule: Q01DX009 (ip), vehicle: saline with Tween-80 102 % of control | dose: 1.0 mg/kg/injection, schedule: Q03HX027 (ip), vehicle: saline with Tween-80 88 % of control | dose: 2.0 mg/kg/injection, schedule: Q01DX009 (ip), vehicle: saline with Tween-80 102 % of control | dose: 2.0 mg/kg/injection, schedule: Q03HX027 (ip), vehicle: saline with Tween-80 107 % of control

CN(C)CCc1ccc(O)cc1
inactive: [2] 89 % of control | [7] 92 % of control

CC1c2ccccc2CC(CCN(C)C)c2ccccc21 (stereo not given)
inactive: [3] 104 % of control | [4] 98 % of control | [5] 99 % of control | [6] 95 % of control

CCOc1ccc(-c2nc3ccc(-c4nc5ccc(N6CCN(C)CC6)cc5[nH]4)cc3[nH]2)cc1
inactive: dose: 1.56 mg/kg/injection, schedule: Q01DX009 (ip), vehicle: saline 113 % of control | [12] 114 % of control | [13] 110 % of control | [14] 110 % of control
